Results reported in patent US8741886B2, “Baclofen and acamprosate based therapy of neurological disorders” (Pharnext, priority 2011, dated 2014).

Tested on: mice injected i.c.v. with Aβ25-35 peptide
Experiment: Passive avoidance test after i.c.v. Aβ25-35
Type: in vivo
Details: Acamprosate 0.2 mg/kg; Baclofen 3 mg/kg
Experimental: Male Swiss mice are used throughout the study. Animals are housed in plastic cages, with free access to laboratory chow and water, except during behavioural experiments, and kept in a regulated environment, under a 12 h light/dark cycle (light on at 8:00 a.m.). Experiments are carried out in a soundproof and air-regulated experimental room, to which mice have been habituated at least 30 min before each experiment.
Drug(s) is/are daily administered by gavage (per os). The β25-35 peptide and scrambled β 25-35 peptide (control) have been dissolved in sterile bidistilled water, and stored at −20° C. until use. The β-amyloid peptides are then administered intracerebroventricularly (i.c.v.). […]
On day 7 and 8, the contextual long-term memory of the animals is assessed using the […] passive avoidance procedure.
The apparatus is a two-compartment (15×20×15 cm high) box with one illuminated with white polyvinylchloride walls and the other darkened with black polyvinylchloride walls and a grid floor. […] The step-through latency, that is, the latency spent to enter the darkened compartment, and the number of vocalizations is recorded. […] After 5 s the doors is raised, the step-through latency and the escape latency, i.e. the time spent to return into the white compartment, are recorded up to 300 s.

Row | Structure (SMILES) | effect on step-through latency, drugs alone compared with the combination (in words)
1 | CC(=O)NCCCS(=O)(=O)O [Acamprosate] | lower effect
2 | NCC(CC(=O)O)c1ccc(Cl)cc1 (centres unmarked) [Baclofen] | lower effect
